# Test: log P determination by HPLC (EEC Directive 79/831 Annex V.A8, gradient method)
# Format: physicochemical
Physical data (logP),Physical data: logP,Physical data: log P,Compound
2.75,–,–,O=C(O)/C=C/c1c(-c2ccc(F)cc2)nc2sc(C(F)(F)F)nn12 [VA-6]
3.31,–,–,O=C(O)/C=C/c1c(-c2ccc(F)cc2Cl)nc2sc(C(F)(F)C(F)(F)F)nn12 [VA114]
3.63,–,–,O=Cc1c(-c2ccc(F)cc2Cl)nc2sc(C(F)(F)C(F)(F)F)nn12 [IVA112]
–,4.21,–,O=C(/C=C/c1c(-c2ccccc2Cl)nc2sc(-c3ccc(C(F)(F)F)cc3)nn12)NCC(F)(F)F [Example 0844]
4.26,–,–,O=C(O)/C=C/c1c(-c2ccc(-c3ccc(Cl)cc3)cc2)nc2sc(C(F)(F)F)nn12 [VA121]
–,2.4,–,COCc1nn2c(/C=C/C(=O)NC(C)C)c(-c3ccccc3Cl)nc2s1 [Example 0824]
3.75,–,–,O=C(O)/C=C/c1c(-c2ccc(F)cc2Cl)nc2sc(C(F)(F)C(F)(F)C(F)(F)F)nn12 [VA135]
–,3.05,–,Cc1cn2c(/C=C/C(=O)NC3CCCCC3)c(-c3ccccc3Cl)nc2s1 [Example 0876]
–,2.48,–,Cc1cn2c(/C=C/C(=O)NC3CCC3)c(-c3ccccc3Cl)nc2s1 [Example 0874]
–,4.71,–,O=C(C=Cc1c(-c2ccccc2Cl)nc2sc(C(F)(F)F)nn12)NC(c1ccc(Cl)cc1)C(F)(F)F (stereo not shown) [Example 0919]
4.46,–,–,O=C(O)/C=C/c1c(-c2ccc(-c3ccc(OC(F)(F)F)cc3)cc2)nc2sc(C(F)(F)F)nn12 [VA123]
–,3.89,–,CC(C)C(NC(=O)C=Cc1c(-c2ccc(Cl)nc2)nc2sc(C(F)(F)F)nn12)C(F)(F)F (stereo not shown) [Example 0936]
2.41,–,–,O=C(O)/C=C/c1c(-c2ccccc2Cl)nc2sc(C(F)F)nn12 [VA-14]
–,2.46,–,Cc1csc2nc(-c3ccccc3Cl)c(/C=C/C(=O)NC3CCCC3)n12 [Example 0897]
–,3.19,–,CC(C)NC(=O)/C=C/c1c(-c2sccc2Cl)nc2sc(C(F)(F)F)nn12 [Example 0920]
3.25,–,–,O=C(O)/C=C/c1c(-c2csc(Cl)n2)nc2sc(C(F)(F)C(F)(F)F)nn12 [VA136]
–,3.17,–,COCc1nn2c(/C=C/C(=O)NCC(F)(F)C(F)(F)F)c(-c3ccccc3Cl)nc2s1 [Example 0836]
–,3.09,–,Cc1cn2c(/C=C/C(=O)NCC(F)(F)C(F)(F)F)c(-c3ccccc3Cl)nc2s1 [Example 0880]
1.84,–,–,O=C(O)/C=C/c1c(-c2ccccc2Cl)nc2scnn12 [VA112]
–,3.9,–,Cc1cn2c(/C=C/C(=O)Nc3ccc(OC(F)(F)F)cc3)c(-c3ccccc3Cl)nc2s1 [Example 0878]
–,5.61,–,O=C(/C=C/c1c(-c2ccccc2Cl)nc2sc(-c3ccc(C(F)(F)F)cc3)nn12)Nc1ccc(C(F)(F)F)cc1 [Example 0857]
–,3.51,–,Cc1cn2c(/C=C/C(=O)NCC(F)(F)C(F)(F)C(F)(F)F)c(-c3ccccc3Cl)nc2s1 [Example 0881]
–,2.59,–,Cc1csc2nc(-c3ccccc3Cl)c(/C=C/C(=O)NC(C)C(F)(F)F)n12 (stereo not shown) [Example 0883]
–,2.72,–,COCc1nn2c(/C=C/C(=O)NCC(F)(F)F)c(-c3ccccc3Cl)nc2s1 [Example 0822]
2.43,–,–,COc1ccc(-c2nc3sc(C(F)(F)F)nn3c2/C=C/C(=O)O)cc1OC [VA-10]
–,2.36,–,Cc1csc2nc(-c3ccccc3Cl)c(/C=C/C(=O)NCC(F)(F)F)n12 [Example 0888]
–,4.34,–,O=C(C=Cc1c(-c2ccccc2Cl)nc2sc(C(F)(F)F)nn12)NC(c1ccc(F)cc1)C(F)(F)F (stereo not shown) [Example 0918]
2.92,–,–,O=Cc1c(-c2sccc2Cl)nc2sc(C(F)(F)F)nn12 [IVA124]
–,2.89,–,Cc1cn2c(/C=C/C(=O)NCC(C)(C)C)c(-c3ccccc3Cl)nc2s1 [Example 0863]

# Further lines, the molecule ahead of its results:
Compound,Physical data (logP),Physical data: logP,Physical data: log P
O=C(/C=C/c1c(-c2cccc(C(F)(F)F)c2)nc2sc(C(F)(F)F)nn12)NC1CCC1 [Example 0376],–,–,4.03
Cc1ccccc1-c1nc2sc(C(F)(F)F)nn2c1/C=C/C(=O)NC1CC1 [Example 0233],–,–,2.99
CCC(NC(=O)C=Cc1c(-c2ccccc2Cl)nc2sc(C(F)(F)F)nn12)c1ccccc1 (stereo not shown) [Example 0190],4.08,–,–
CC(C)(C)c1nn2c(/C=C/C(=O)NC3CC3)c(-c3ccccc3Cl)nc2s1 [Example 0807],–,3.07,–
CC(NC(=O)/C=C/c1c(-c2cccc(C(F)(F)F)c2)nc2sc(C(F)(F)F)nn12)C(F)(F)F (stereo not shown) [Example 0388],–,–,4.27
CCC(CC)NC(=O)/C=C/c1c(-c2cccc(Cl)c2)nc2sc(C(F)(F)F)nn12 [Example 0134],4.27,–,–
COc1ccc(-c2nc3sc(C(F)(F)F)nn3c2/C=C/C(=O)NOC(C)c2ccccc2)cc1OC (stereo not shown) [Example 0708],–,3.37,–
CCC(NC(=O)/C=C/c1c(-c2ccc(Cl)cc2)nc2sc(C(F)(F)F)nn12)c1ccccc1 (stereo not shown) [Example 0039],4.56,–,–
COCC(C)NC(=O)/C=C/c1c(-c2cccc(C(F)(F)F)c2)nc2sc(C(F)(F)F)nn12 (stereo not shown) [Example 0382],–,–,3.68
CCC(NC(=O)C=Cc1c(-c2cccc(C(F)(F)F)c2)nc2sc(C(F)(F)F)nn12)c1ccccc1 (stereo not shown) [Example 0403],–,–,4.72
CC(COc1ccccc1)NC(=O)/C=C/c1c(-c2ccc(Cl)cc2)nc2sc(C(F)(F)F)nn12 (stereo not shown) [Example 0043],4.51,–,–
COCc1nn2c(/C=C/C(=O)NC(C)C(F)(F)F)c(-c3ccccc3Cl)nc2s1 (stereo not shown) [Example 0817],–,2.93,–
O=C(/C=C/c1c(-c2ccc(F)cc2)nc2sc(C(F)(F)F)nn12)NC1CCCC1 [Example 0306],–,–,3.63
CCC(CC)NC(=O)/C=C/c1c(-c2ccc(OC)c(OC)c2)nc2sc(C(F)(F)F)nn12 [Example 0710],–,3.37,–
CCC(CC)NC(=O)/C=C/c1c(-c2ccc(Cl)cc2)nc2sc(C(F)(F)F)nn12 [Example 0064],4.23,–,–
CCC(NC(=O)C=Cc1c(-c2ccccc2C)nc2sc(C(F)(F)F)nn12)c1ccccc1 (stereo not shown) [Example 0261],–,–,4.18
COc1ccc(-c2nc3sc(C(F)(F)F)nn3c2/C=C/C(=O)NC(C)COc2ccccc2)cc1OC (stereo not shown) [Example 0689],–,3.72,–
Cc1ccccc1-c1nc2sc(C(F)(F)F)nn2c1/C=C/C(=O)NC(C)COc1ccccc1 (stereo not shown) [Example 0265],–,–,4.18
O=C(/C=C/c1c(-c2cccc(C(F)(F)F)c2)nc2sc(C(F)(F)F)nn12)NC1CC1 [Example 0375],–,–,3.59

Compound,Physical data (logP),Physical data: logP,Physical data: log P
O=C(/C=C/c1c(-c2ccc(Cl)cc2)nc2sc(C(F)(F)F)nn12)N1CCOCC1 [Example 0072],3.27,–,–
CCNC(=O)/C=C/c1c(-c2ccccc2Cl)nc2sc(C(F)(F)F)nn12 [Example 0147],2.82,–,–
C=CCN(C)C(=O)/C=C/c1c(-c2cccc(C(F)(F)F)c2)nc2sc(C(F)(F)F)nn12 [Example 0431],–,–,4.22
CC(NC(=O)/C=C/c1c(-c2ccc(F)cc2)nc2sc(C(F)(F)F)nn12)c1ccccn1 (stereo not shown) [Example 0345],–,–,2.45
CCN(CC)C(=O)/C=C/c1c(-c2ccc(OC)c(OC)c2)nc2sc(C(F)(F)F)nn12 [Example 0716],–,3.53,–
CC(C)C(C)NC(=O)/C=C/c1c(-c2cccc(C(F)(F)F)c2)nc2sc(C(F)(F)F)nn12 (stereo not shown) [Example 0387],–,–,4.46
CC(C)C(NC(=O)/C=C/c1c(-c2ccccc2Cl)nc2sc(C(C)(C)C)nn12)C(F)(F)F (stereo not shown) [Example 0796],–,4.46,–
CC(C)(C)NC(=O)/C=C/c1c(-c2ccccc2F)nc2sc(C(F)(F)F)nn12 [Example 0444],–,–,3.55
O=C(/C=C/c1c(-c2ccc(Cl)cc2Cl)nc2sc(C(F)(F)F)nn12)NOCC1CC1 [Example 0563],–,–,3.68
O=C(/C=C/c1c(-c2ccccc2Cl)nc2sc(C(F)(F)F)nn12)N1CCCCC1 [Example 0222],–,–,3.76
COCc1nn2c(C=CC(=O)NC(C(C)C)C(F)(F)F)c(-c3ccccc3Cl)nc2s1 (stereo not shown) [Example 0818],–,3.54,–
Cc1ccccc1-c1nc2sc(C(F)(F)F)nn2c1/C=C/C(=O)NC1CCCC1 [Example 0235],–,–,3.68
CC(COc1ccccc1)NC(=O)/C=C/c1c(-c2cccc(Cl)c2)nc2sc(C(F)(F)F)nn12 (stereo not shown) [Example 0113],4.56,–,–
COCc1nn2c(/C=C/C(=O)NC3CCC(C(F)(F)F)CC3)c(-c3ccccc3Cl)nc2s1 (stereo not shown) [Example 0821],–,3.4,–
COc1ccc(-c2nc3sc(C(F)(F)F)nn3c2/C=C/C(=O)N2CCOCC2)cc1OC [Example 0718],–,2.58,–
O=C(C=Cc1c(-c2ccc(F)cc2Cl)nc2sc(C(F)(F)F)nn12)NC1CCCCC1C(F)(F)F (stereo not shown) [Example 0600],–,–,4.12
Cc1ccccc1-c1nc2sc(C(F)(F)F)nn2c1/C=C/C(=O)NC(C)c1ccccc1 (stereo not shown) [Example 0260],–,–,3.94
COc1ccc(-c2nc3sc(C(F)(F)F)nn3c2/C=C/C(=O)NC(C)C)cc1OC [Example 0652],–,2.85,–
CCC(NC(=O)C=Cc1c(-c2ccccc2Cl)nc2sc(C(F)(F)F)nn12)C1CCCCC1 (stereo not shown) [Example 0196],4.82,–,–

# Reference: US20090118286A1, “Heterobicyclic Acrylamides” (Bayer Cropscience AG, priority 2005, published 2009)
